Measurements taken from PubChem BioAssay AID248 (DTP/NCI, 2004).
Toxic doses and inconclusive results are not listed. Rule as the data show it: active = T/C of 150% or more; inactive = T/C below 125%.

Tested on: L1210 leukemia ip in BDF1 mice, survival T/C
Test: NCI In Vivo Anticancer Drug Screen. Data for tumor model L1210 Leukemia (intraperitoneal) in B6D2F1 (BDF1) mice
Settings: endpoint: mean survival time, higher = longer survival
How it was run: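 Survival endpoint. Drug-treated group vs vehicle group, expressed as T divided by C. Tumor passaged by transplantation.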

[1] = dose: 75.0 mg/kg/injection, schedule: Q01DX001 (ip), vehicle: other
[2] = dose: 150.0 mg/kg/injection, schedule: Q01DX001 (ip), vehicle: other
[3] = dose: 100.0 mg/kg/injection, schedule: Q01DX001 (ip), vehicle: saline
[4] = dose: 200.0 mg/kg/injection, schedule: Q01DX001 (ip), vehicle: saline
[5] = dose: 400.0 mg/kg/injection, schedule: Q01DX001 (ip), vehicle: saline
[6] = dose: 50.0 mg/kg/injection, schedule: Q01DX009 (ip), vehicle: saline with Tween-80
[7] = dose: 100.0 mg/kg/injection, schedule: Q01DX009 (ip), vehicle: saline with Tween-80
[8] = dose: 200.0 mg/kg/injection, schedule: Q01DX009 (ip), vehicle: saline with Tween-80
[9] = dose: 100.0 mg/kg/injection, schedule: Q04DX003 (ip), vehicle: saline with Tween-80
[10] = dose: 200.0 mg/kg/injection, schedule: Q04DX003 (ip), vehicle: saline with Tween-80
[11] = dose: 400.0 mg/kg/injection, schedule: Q01DX009 (ip), vehicle: saline with Tween-80
[12] = dose: 400.0 mg/kg/injection, schedule: Q04DX003 (ip), vehicle: saline with Tween-80
[13] = dose: 200.0 mg/kg/injection, schedule: Q01DX001 (ip), vehicle: carboxymethylcellulose (CMC)
[14] = dose: 25.0 mg/kg/injection, schedule: Q04DX002 (ip), vehicle: Klucel (hydroxypropylcellulose) (HPC)
[15] = dose: 50.0 mg/kg/injection, schedule: Q04DX002 (ip), vehicle: Klucel (hydroxypropylcellulose) (HPC)
[16] = dose: 100.0 mg/kg/injection, schedule: Q04DX002 (ip), vehicle: Klucel (hydroxypropylcellulose) (HPC)
[17] = dose: 100.0 mg/kg/injection, schedule: Q01DX009 (ip), vehicle: saline
[18] = dose: 100.0 mg/kg/injection, schedule: Q04DX003 (ip), vehicle: saline
[19] = dose: 200.0 mg/kg/injection, schedule: Q01DX009 (ip), vehicle: saline
[20] = dose: 200.0 mg/kg/injection, schedule: Q04DX003 (ip), vehicle: saline
[21] = dose: 100.0 mg/kg/injection, schedule: Q04DX002 (ip), vehicle: saline with Tween-80
[22] = dose: 200.0 mg/kg/injection, schedule: Q04DX002 (ip), vehicle: saline with Tween-80
[23] = dose: 400.0 mg/kg/injection, schedule: Q04DX002 (ip), vehicle: saline with Tween-80

Measured: T/C

O=C(NCC(F)(F)C(F)(F)C(F)(F)C(F)(F)C(F)(F)C(F)(F)C(F)(F)F)Oc1ccccc1
inactive: [1] 104 % of control | [2] 96 % of control | dose: 300.0 mg/kg/injection, schedule: Q01DX001 (ip), vehicle: other 94 % of control

O=C(CCCC(=O)N/N=C/c1cccc([N+](=O)[O-])c1)N/N=C\c1cccc([N+](=O)[O-])c1
inactive: dose: 50.0 mg/kg/injection, schedule: Q01DX001 (ip), vehicle: saline 101 % of control | [3] 95 % of control | [4] 95 % of control | [5] 91 % of control

Nc1nc2c([nH]c(=O)n2C2OC(CO)C(O)C2O)c(=O)n1N (stereo not drawn)
inactive: [3] 102 % of control | [4] 101 % of control | [5] 96 % of control

CN(C)/N=C(\CBr)c1ccc(Br)cc1
inactive: [6] 96 % of control | [7] 107 % of control | [8] 89 % of control

Cc1noc(N)c1-n1c(C)ccc1C
inactive: [7] 102 % of control | [9] 100 % of control | [8] 105 % of control | [10] 98 % of control | [11] 100 % of control | [12] 94 % of control

Nc1nc(N)nc(CCCCc2nc(N)nc(N)n2)n1
inactive: [13] 90 % of control

Cc1ccc([N+](=O)[O-])cc1NC(=O)Nc1nccs1
inactive: dose: 100.0 mg/kg/injection, schedule: Q01DX009 (ip), vehicle: Klucel (hydroxypropylcellulose) (HPC) 104 % of control | dose: 200.0 mg/kg/injection, schedule: Q01DX009 (ip), vehicle: Klucel (hydroxypropylcellulose) (HPC) 101 % of control | dose: 400.0 mg/kg/injection, schedule: Q01DX009 (ip), vehicle: Klucel (hydroxypropylcellulose) (HPC) 102 % of control

Cc1cc(C(=O)/C=C(\C(=O)c2ccccc2)c2ccccc2)ccc1Cl
inactive: dose: 12.5 mg/kg/injection, schedule: Q04DX002 (ip), vehicle: Klucel (hydroxypropylcellulose) (HPC) 98 % of control | [14] 119 % of control | [15] 94 % of control | [16] 86 % of control

CC(=O)C1CCC2C3CCC4=CC(=O)CC4(C)C3CCC12C (stereo not drawn)
inactive: [6] 113 % of control | [7] 105 % of control | [8] 90 % of control

CSc1nn(C)c[n+]1-c1ccccc1
inactive: [3] 105 % of control

NC(=O)c1ccccc1OC(=O)Nc1ccccc1F
inactive: [7] 106 % of control | [8] 107 % of control | [11] 107 % of control

Cc1ccc(OCCOc2ccc(C(=O)O)cc2)cc1
inactive: dose: 100.0 mg/kg/injection, schedule: Q04DX003 (ip), vehicle: Klucel (hydroxypropylcellulose) (HPC) 95 % of control | dose: 200.0 mg/kg/injection, schedule: Q04DX003 (ip), vehicle: Klucel (hydroxypropylcellulose) (HPC) 101 % of control | dose: 400.0 mg/kg/injection, schedule: Q04DX003 (ip), vehicle: Klucel (hydroxypropylcellulose) (HPC) 101 % of control

COc1cc2c(cc1OC)C(=O)C(c1ccc3c(c1)OCO3)CC2 (stereo not drawn)
inactive: dose: 100.0 mg/kg/injection, schedule: Q01DX009 (ip), vehicle: water 102 % of control | dose: 100.0 mg/kg/injection, schedule: Q04DX003 (ip), vehicle: water 94 % of control | dose: 200.0 mg/kg/injection, schedule: Q01DX009 (ip), vehicle: water 91 % of control | dose: 200.0 mg/kg/injection, schedule: Q04DX003 (ip), vehicle: water 92 % of control | dose: 400.0 mg/kg/injection, schedule: Q01DX009 (ip), vehicle: water 101 % of control | dose: 400.0 mg/kg/injection, schedule: Q04DX003 (ip), vehicle: water 94 % of control

N#CC(OC(=O)c1ccccc1)c1ccccc1 (stereo not drawn)
inactive: [1] 104 % of control | [2] 105 % of control

COC(=O)CC1C(=O)C(C)(C(=O)OC)CCC1c1ccc(OC)cc1 (stereo not drawn)
inactive: [17] 96 % of control | [18] 100 % of control | [19] 90 % of control | [20] 94 % of control | dose: 400.0 mg/kg/injection, schedule: Q01DX009 (ip), vehicle: saline 93 % of control | dose: 400.0 mg/kg/injection, schedule: Q04DX003 (ip), vehicle: saline 94 % of control

Cc1ccc(S(=O)(=O)N/N=C/c2ccccc2C)cc1
inactive: [7] 105 % of control | [9] 98 % of control | [8] 100 % of control | [10] 95 % of control | [11] 97 % of control | [12] 95 % of control

COc1cc(N=Nc2ccc3c(c2)Cc2ccccc2-3)c(OC)cc1N
inactive: dose: 100.0 mg/kg/injection, schedule: Q01DX001 (ip), vehicle: other 111 % of control | dose: 200.0 mg/kg/injection, schedule: Q01DX001 (ip), vehicle: other 88 % of control | dose: 400.0 mg/kg/injection, schedule: Q01DX001 (ip), vehicle: other 105 % of control

Cc1[nH]c(N)nc(=S)c1CCCN(C(=O)c1ccccc1)c1ccccc1
inactive: dose: 37.5 mg/kg/injection, schedule: Q01DX001 (ip), vehicle: Klucel (hydroxypropylcellulose) (HPC) 90 % of control | dose: 150.0 mg/kg/injection, schedule: Q01DX001 (ip), vehicle: Klucel (hydroxypropylcellulose) (HPC) 90 % of control

CC(=O)NCCCCCCNC(C)=O
inactive: dose: 10.0 mg/kg/injection, schedule: Q01DX Z (ip), vehicle: saline 100 % of control | dose: 30.0 mg/kg/injection, schedule: Q01DX Z (ip), vehicle: saline 104 % of control | dose: 100.0 mg/kg/injection, schedule: Q01DX Z (ip), vehicle: saline 100 % of control | dose: 300.0 mg/kg/injection, schedule: Q01DX Z (ip), vehicle: saline 100 % of control

CCOC(=O)/C(N=O)=C(/O)c1ccccc1
inactive: [9] 103 % of control | [10] 94 % of control | [12] 96 % of control

CCCCNc1ccc(C(=O)O)cc1
inactive: dose: 100.0 mg/kg/injection, schedule: Q01DX009 (ip), vehicle: gum acacia 97 % of control | dose: 100.0 mg/kg/injection, schedule: Q04DX003 (ip), vehicle: gum acacia 90 % of control | dose: 200.0 mg/kg/injection, schedule: Q01DX009 (ip), vehicle: gum acacia 92 % of control | dose: 200.0 mg/kg/injection, schedule: Q04DX003 (ip), vehicle: gum acacia 91 % of control | dose: 400.0 mg/kg/injection, schedule: Q01DX009 (ip), vehicle: gum acacia 93 % of control | dose: 400.0 mg/kg/injection, schedule: Q04DX003 (ip), vehicle: gum acacia 93 % of control

N#Cc1ccc(N=C(N)N[N+](=O)[O-])cc1
inactive: [14] 96 % of control | [15] 104 % of control | [16] 104 % of control

COC(=O)c1ccccn1
inactive: [21] 100 % of control | [22] 107 % of control

CCOc1ccc([N+](=O)[O-])cc1
inactive: [16] 100 % of control | dose: 200.0 mg/kg/injection, schedule: Q04DX002 (ip), vehicle: Klucel (hydroxypropylcellulose) (HPC) 91 % of control | dose: 400.0 mg/kg/injection, schedule: Q04DX002 (ip), vehicle: Klucel (hydroxypropylcellulose) (HPC) 103 % of control

N#CC(NC(=O)c1ccccc1)SCc1ccccc1 (stereo not drawn)
inactive: [14] 107 % of control | [15] 91 % of control | [16] 91 % of control

CCCC(CCCC(=O)O)C(=O)O (stereo not drawn)
inactive: dose: 50.0 mg/kg/injection, schedule: Q01DX001 (ip), vehicle: carboxymethylcellulose (CMC) 86 % of control | dose: 100.0 mg/kg/injection, schedule: Q01DX001 (ip), vehicle: carboxymethylcellulose (CMC) 90 % of control | [13] 92 % of control | dose: 400.0 mg/kg/injection, schedule: Q01DX001 (ip), vehicle: carboxymethylcellulose (CMC) 90 % of control

Cc1ncc(CCl)c(CCl)c1O
inactive: dose: 50.0 mg/kg/injection, schedule: Q01DX009 (ip), vehicle: saline 95 % of control | [17] 92 % of control | [18] 98 % of control | [19] 97 % of control | [20] 97 % of control

CC(C)(C)c1cc(CN2CCOCC2)cc(C(C)(C)C)c1O
inactive: [7] 96 % of control | [8] 104 % of control | [11] 96 % of control

COc1cc(CCC(=O)O)cc(OC)c1OC
inactive: [21] 116 % of control | [22] 89 % of control | [23] 106 % of control

COc1ccc(NC(=O)Nc2ccccc2Cl)c(OC)c1
inactive: [21] 87 % of control | [23] 87 % of control
